The series deals with SMN2. Put plainly: mouse, dose not given. Conditions: ASO.

Among the data in the OligoGym collection are 3 h FOB score values, retold here.

HELM strings list units from the 5' end as sugar, base in round brackets, then linkage (d deoxyribose, r ribose, m 2'-O-methyl, p phosphodiester). Strings are as the collection lists them; they lack the last nucleoside at the 3' end of the tested compound. [moe] = 2'-O-(2-methoxyethyl) (MOE); [sp] = phosphorothioate linkage; [m5C] = 5-methylcytosine

With “RNA1{[moe]([m5C])[sp].[moe](A)[sp].[moe]([m5C])[sp].[moe](T)[sp].[moe](T)[sp].[moe](T)[sp].[moe]([m5C])[sp].[moe](A)[sp].[moe](T)[sp].[moe](A)[sp].[moe](A)[sp].[moe](T)[sp].[moe](G)[sp].[moe]([m5C])[sp].[moe](T)[sp].[moe](G)}$$$$ (last 3' nucleoside missing)”, the 3 h FOB score is 3.25 score 0-7.
The same measure for “RNA1{[moe]([m5C])[sp].[moe](A)[sp].[moe]([m5C])[sp].[moe](T)[sp].[moe](T)[sp].[moe](T)[sp].[moe]([m5C])[sp].[moe](A)[sp].[moe](T)[sp].[moe](A)[sp].[moe](A)[sp].[moe](T)[sp].[moe](G)[sp].[moe]([m5C])[sp].[moe](T)p.[moe](G)[sp].[moe](G)}$$$$ (last 3' nucleoside missing)”: 0 score 0-7; for “RNA1{[moe]([m5C])[sp].[moe](A)[sp].[moe]([m5C])[sp].[moe](T)[sp].[moe](T)[sp].[moe](T)[sp].[moe]([m5C])[sp].[moe](A)[sp].[moe](T)[sp].[moe](A)[sp].[moe](A)[sp].[moe](T)[sp].[moe](G)[sp].[moe]([m5C])p.[moe](T)p.[moe](G)[sp].[moe](G)}$$$$ (last 3' nucleoside missing)”: 0 score 0-7; for “RNA1{[moe]([m5C])[sp].[moe](A)[sp].[moe]([m5C])[sp].[moe](T)[sp].[moe](T)[sp].[moe](T)[sp].[moe]([m5C])[sp].[moe](A)[sp].[moe](T)[sp].[moe](A)[sp].[moe](A)[sp].[moe](T)[sp].[moe](G)p.[moe]([m5C])[sp].[moe](T)[sp].[moe](G)[sp].[moe](G)}$$$$ (last 3' nucleoside missing)”: 0 score 0-7.
The value for “RNA1{[moe]([m5C])[sp].[moe](A)[sp].[moe]([m5C])[sp].[moe](T)[sp].[moe](T)[sp].[moe](T)[sp].[moe]([m5C])[sp].[moe](A)[sp].[moe](T)[sp].[moe](A)[sp].[moe](A)[sp].[moe](T)[sp].[moe](G)p.[moe]([m5C])[sp].[moe](T)p.[moe](G)[sp].[moe](G)}$$$$ (last 3' nucleoside missing)” was 0 score 0-7; that for “RNA1{[moe]([m5C])[sp].[moe](A)[sp].[moe]([m5C])[sp].[moe](T)[sp].[moe](T)[sp].[moe](T)[sp].[moe]([m5C])[sp].[moe](A)[sp].[moe](T)[sp].[moe](A)[sp].[moe](A)[sp].[moe](T)p.[moe](G)p.[moe]([m5C])[sp].[moe](T)[sp].[moe](G)[sp].[moe](G)}$$$$ (last 3' nucleoside missing)” was 0 score 0-7.
As to “RNA1{[moe]([m5C])[sp].[moe](A)[sp].[moe]([m5C])[sp].[moe](T)[sp].[moe](T)[sp].[moe](T)[sp].[moe]([m5C])[sp].[moe](A)[sp].[moe](T)[sp].[moe](A)[sp].[moe](A)[sp].[moe](T)p.[moe](G)p.[moe]([m5C])p.[moe](T)p.[moe](G)[sp].[moe](G)}$$$$ (last 3' nucleoside missing)”, the 3 h FOB score is 0 score 0-7.
The value for “RNA1{[moe]([m5C])[sp].[moe](A)[sp].[moe]([m5C])[sp].[moe](T)[sp].[moe](T)[sp].[moe](T)[sp].[moe]([m5C])[sp].[moe](A)[sp].[moe](T)[sp].[moe](A)[sp].[moe](A)p.[moe](T)[sp].[moe](G)[sp].[moe]([m5C])[sp].[moe](T)[sp].[moe](G)[sp].[moe](G)}$$$$ (last 3' nucleoside missing)” was 0.25 score 0-7; that for “RNA1{[moe]([m5C])[sp].[moe](A)[sp].[moe]([m5C])[sp].[moe](T)[sp].[moe](T)[sp].[moe](T)[sp].[moe]([m5C])[sp].[moe](A)[sp].[moe](T)[sp].[moe](A)[sp].[moe](A)p.[moe](T)[sp].[moe](G)[sp].[moe]([m5C])[sp].[moe](T)p.[moe](G)[sp].[moe](G)}$$$$ (last 3' nucleoside missing)” was 0 score 0-7.
The same measure for “RNA1{[moe]([m5C])[sp].[moe](A)[sp].[moe]([m5C])[sp].[moe](T)[sp].[moe](T)[sp].[moe](T)[sp].[moe]([m5C])[sp].[moe](A)[sp].[moe](T)[sp].[moe](A)[sp].[moe](A)p.[moe](T)p.[moe](G)p.[moe]([m5C])p.[moe](T)[sp].[moe](G)[sp].[moe](G)}$$$$ (last 3' nucleoside missing)”: 0 score 0-7; for “RNA1{[moe]([m5C])[sp].[moe](A)[sp].[moe]([m5C])[sp].[moe](T)[sp].[moe](T)[sp].[moe](T)[sp].[moe]([m5C])[sp].[moe](A)[sp].[moe](T)[sp].[moe](A)p.[moe](A)p.[moe](T)[sp].[moe](G)[sp].[moe]([m5C])[sp].[moe](T)[sp].[moe](G)[sp].[moe](G)}$$$$ (last 3' nucleoside missing)”: 1 score 0-7.
The same measure for “RNA1{[moe]([m5C])[sp].[moe](A)[sp].[moe]([m5C])[sp].[moe](T)[sp].[moe](T)[sp].[moe](T)[sp].[moe]([m5C])[sp].[moe](A)[sp].[moe](T)p.[moe](A)[sp].[moe](A)[sp].[moe](T)[sp].[moe](G)[sp].[moe]([m5C])[sp].[moe](T)[sp].[moe](G)[sp].[moe](G)}$$$$ (last 3' nucleoside missing)”: 0 score 0-7; for “RNA1{[moe]([m5C])[sp].[moe](A)[sp].[moe]([m5C])[sp].[moe](T)[sp].[moe](T)[sp].[moe](T)[sp].[moe]([m5C])[sp].[moe](A)[sp].[moe](T)p.[moe](A)[sp].[moe](A)[sp].[moe](T)[sp].[moe](G)[sp].[moe]([m5C])[sp].[moe](T)p.[moe](G)[sp].[moe](G)}$$$$ (last 3' nucleoside missing)”: 0 score 0-7.
For “RNA1{[moe]([m5C])[sp].[moe](A)[sp].[moe]([m5C])[sp].[moe](T)[sp].[moe](T)[sp].[moe](T)[sp].[moe]([m5C])[sp].[moe](A)[sp].[moe](T)p.[moe](A)p.[moe](A)p.[moe](T)p.[moe](G)[sp].[moe]([m5C])[sp].[moe](T)[sp].[moe](G)[sp].[moe](G)}$$$$ (last 3' nucleoside missing)”, the 3 h FOB score turned out to be 0 score 0-7.
The value for “RNA1{[moe]([m5C])[sp].[moe](A)[sp].[moe]([m5C])[sp].[moe](T)[sp].[moe](T)[sp].[moe](T)[sp].[moe]([m5C])[sp].[moe](A)p.[moe](T)p.[moe](A)[sp].[moe](A)[sp].[moe](T)[sp].[moe](G)[sp].[moe]([m5C])[sp].[moe](T)[sp].[moe](G)[sp].[moe](G)}$$$$ (last 3' nucleoside missing)” was 0 score 0-7; that for “RNA1{[moe]([m5C])[sp].[moe](A)[sp].[moe]([m5C])[sp].[moe](T)[sp].[moe](T)[sp].[moe](T)[sp].[moe]([m5C])[sp].[moe](A)p.[moe](T)p.[moe](A)p.[moe](A)[sp].[moe](T)[sp].[moe](G)[sp].[moe]([m5C])[sp].[moe](T)[sp].[moe](G)[sp].[moe](G)}$$$$ (last 3' nucleoside missing)” was 1 score 0-7; that for “RNA1{[moe]([m5C])[sp].[moe](A)[sp].[moe]([m5C])[sp].[moe](T)[sp].[moe](T)[sp].[moe](T)[sp].[moe]([m5C])[sp].[moe](A)p.[moe](T)p.[moe](A)p.[moe](A)p.[moe](T)[sp].[moe](G)[sp].[moe]([m5C])[sp].[moe](T)[sp].[moe](G)[sp].[moe](G)}$$$$ (last 3' nucleoside missing)” was 0 score 0-7.
The same measure for “RNA1{[moe]([m5C])[sp].[moe](A)[sp].[moe]([m5C])[sp].[moe](T)[sp].[moe](T)[sp].[moe](T)[sp].[moe]([m5C])p.[moe](A)[sp].[moe](T)[sp].[moe](A)[sp].[moe](A)[sp].[moe](T)[sp].[moe](G)[sp].[moe]([m5C])[sp].[moe](T)[sp].[moe](G)[sp].[moe](G)}$$$$ (last 3' nucleoside missing)”: 0 score 0-7; for “RNA1{[moe]([m5C])[sp].[moe](A)[sp].[moe]([m5C])[sp].[moe](T)[sp].[moe](T)[sp].[moe](T)[sp].[moe]([m5C])p.[moe](A)[sp].[moe](T)[sp].[moe](A)[sp].[moe](A)[sp].[moe](T)[sp].[moe](G)[sp].[moe]([m5C])[sp].[moe](T)p.[moe](G)[sp].[moe](G)}$$$$ (last 3' nucleoside missing)”: 0 score 0-7.
The same measure for “RNA1{[moe]([m5C])[sp].[moe](A)[sp].[moe]([m5C])[sp].[moe](T)[sp].[moe](T)[sp].[moe](T)[sp].[moe]([m5C])p.[moe](A)p.[moe](T)p.[moe](A)p.[moe](A)[sp].[moe](T)[sp].[moe](G)[sp].[moe]([m5C])[sp].[moe](T)[sp].[moe](G)[sp].[moe](G)}$$$$ (last 3' nucleoside missing)”: 0 score 0-7.
Regarding “RNA1{[moe]([m5C])[sp].[moe](A)[sp].[moe]([m5C])[sp].[moe](T)[sp].[moe](T)[sp].[moe](T)[sp].[moe]([m5C])p.[moe](A)p.[moe](T)p.[moe](A)p.[moe](A)p.[moe](T)[sp].[moe](G)[sp].[moe]([m5C])[sp].[moe](T)[sp].[moe](G)[sp].[moe](G)}$$$$ (last 3' nucleoside missing)”, the 3 h FOB score is 0 score 0-7.
The value for “RNA1{[moe]([m5C])[sp].[moe](A)[sp].[moe]([m5C])[sp].[moe](T)[sp].[moe](T)[sp].[moe](T)[sp].[moe]([m5C])p.[moe](A)p.[moe](T)p.[moe](A)p.[moe](A)p.[moe](T)p.[moe](G)[sp].[moe]([m5C])[sp].[moe](T)[sp].[moe](G)[sp].[moe](G)}$$$$ (last 3' nucleoside missing)” was 0 score 0-7; that for “RNA1{[moe]([m5C])[sp].[moe](A)[sp].[moe]([m5C])[sp].[moe](T)[sp].[moe](T)[sp].[moe](T)p.[moe]([m5C])p.[moe](A)[sp].[moe](T)[sp].[moe](A)[sp].[moe](A)[sp].[moe](T)[sp].[moe](G)[sp].[moe]([m5C])[sp].[moe](T)[sp].[moe](G)[sp].[moe](G)}$$$$ (last 3' nucleoside missing)” was 0 score 0-7.
